In the assay the test system is T1, MEK1 (platelet MEK; MEK1/2 not resolved).
T1 construct: gene MAP2K1
The experiment in a line: western blot of ERK1/[…] phosphorylation (MEK substrate) in CRP- or TRAP-6-stimulated washed human platelets. It counts as cell-based. A general note: A western blot detects proteins with antibodies after separation by electrophoresis.

This passage reports log10 IC50 (M) and IC50 results from publication PMC6594423, “Cobimetinib and trametinib inhibit platelet MEK but do not cause platelet dysfunction” (Platelets, 2018).

Compound `O=C(c1ccc(F)c(F)c1Nc1ccc(I)cc1F)N1CC(O)([C@@H]2CCCCN2)C1` [Cobimetinib] returned a log10 IC50 (M) of -9.5.
On to `CC(=O)Nc1cccc(-n2c(=O)n(C3CC3)c(=O)c3c(Nc4ccc(I)cc4F)n(C)c(=O)c(C)c32)c1` [Trametinib], for which the IC50 was −10.9 ± 0.43 (logIC50) log M.
